Test [1] deals with NCI-H358 (K-Ras G12C). Kind of test: CellTiter-Glo cell viability assay, H358. The format is cell-based. The note with it: Homo sapiens, NCI-H358, 120 h. The gist of the method:
(§1)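 Direct compound addition to plated cells; 5-day exposure; ~30 min RT equilibration; CellTiter-Glo luminescence. Normalization: (sample/avg DMSO)*100; 4-parameter logistic curve fit.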
(ATP-based viability assays read luminescence as a measure of living cells.)

For test [2], the system named is AsPC-1 (K-Ras G12D). Nature of the test: Potency assay: pERK in AsPC-1 cells. The format is cell-based. As to conditions: Homo sapiens.
The target of test [3] is KRAS G12V (Homo sapiens, UniProt P01116+P62937, G12V). Kind of test: Ras-Raf disruption/FRET/MOA assay, KRAS G12V. The format is biochemical. The method, boiled down:
(§2)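 Buffer 25 mM HEPES pH 7.3, 100 mM NaCl, 5 mM MgCl2, 0.1% BSA, 0.002% Tween20; His6-KRAS-GMPPNP 12.5 nM, CypA 25 μM, GST-BRAF^RBD 50 nM; cpd 10-pt 3-fold from 30 μM; 3 h 25° C; then Eu/APC antibodies 1.5 h; TR-FRET ratio vs DMSO.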

Test [4] concerns the target KRAS G12S (Homo sapiens, UniProt P01116+P62937, G12S). Kind of test: Ras-Raf disruption/FRET/MOA assay, KRAS G12S. The format is biochemical. The gist of the method:
as §2

For test [5], the target named is KRAS WT (Homo sapiens, UniProt P01116+P62937). Kind of test: Ras-Raf disruption/FRET/MOA assay, KRAS WT. The format is biochemical. The gist of the method: as §2
Test [6] deals with AsPC-1 (K-Ras G12D). Nature of the test: CellTiter-Glo cell viability assay, AsPC-1. The format is cell-based. As to conditions: Homo sapiens, ASPC1, 120 h. The method, boiled down:
as §1

Test [7] deals with KRAS G12C (Homo sapiens, UniProt P01116+P62937, G12C). Kind of test: Ras-Raf disruption/FRET/MOA assay, KRAS G12C. The format is biochemical. The method, boiled down: as §2
Test [8] has as its target KRAS G13D (Homo sapiens, UniProt P01116+P62937, G13D). Kind of test: Ras-Raf disruption/FRET/MOA assay, KRAS G13D. The format is biochemical. The method, boiled down: as §2
Test [9] addresses KRAS G12D (Homo sapiens, UniProt P01116+P62937, G12D). Kind of test: Ras-Raf disruption/FRET/MOA assay, KRAS G12D. The format is biochemical. The method, boiled down: as §2
For test [10], the target named is T1, NRAS G12C (Homo sapiens, UniProt P01111+P62937, G12C).
T1 construct: His6
Nature of the test: Ras-Raf disruption/FRET/MOA assay, NRAS G12C. The format is biochemical. The gist of the method: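 Disruption of Ras:RAF binding was read as a drop in TR-FRET ratio versus DMSO controls. The buffer was 25 mM HEPES pH 7.3, 0.002% Tween20, 0.1% BSA, 100 mM NaCl and 5 mM MgCl2. Compounds were tested as a 10-point 3-fold dilution series from 30 μM. Detection used 10 nM anti-His Eu-W1024 and 50 nM anti-GST allophycocyanin.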

Test [11] deals with KRAS G13C (Homo sapiens, UniProt P01116+P62937, G13C). Kind of test: Ras-Raf disruption/FRET/MOA assay, KRAS G13C. The format is biochemical. The method, boiled down:
as §2

The target of test [12] is T2, NRAS WT (Homo sapiens, UniProt P01111+P62937).
T2 construct: His6
Kind of test: Ras-Raf disruption/FRET/MOA assay, NRAS WT. The format is biochemical. From the text: Disruption of B-Raf Ras-Binding Domain (BRAF^RBD) Interaction with K-Ras by Compounds of the Invention (Also Called a FRET Assay or an MOA Assay)
Note—The following protocol describes a procedure for monitoring disruption of K-Ras G12C (GMP-PNP) binding to BRAF^RBD by a compound of the invention. This protocol may also be executed substituting other Ras proteins or nucleotides, such as K-Ras G12D and K-Ras G13D.
The purpose of this biochemical assay was to measure the ability of test compounds to facilitate ternary complex formation between a nucleotide-loaded K-Ras isoform and Cyclophilin A; the resulting ternary complex disrupts binding to a BRAF^RBD construct, inhibiting K-Ras signaling through a RAF effector.
In assay buffer containing 25 mM HEPES pH 7.3, 0.002% Tween20, 0.1% BSA, 100 mM NaCl and 5 mM MgCl2, tagless Cyclophilin A, His6-K-Ras-GMPPNP, and GST-BRAF^RBD were combined in a 384-well assay plate at final concentrations of 25 μM, 12.5 nM, and 50 nM, respectively. Compound was present in plate wells as a 10-point 3-fold dilution series starting at a final concentration of 30 μM. After incubation at 25° C. for 3 hours, a mixture of anti-His Eu-W1024 and anti-GST allophycocyanin was then added to assay sample wells at final concentrations of 10 nM and 50 nM, respectively, and the reaction incubated for an additional 1.5 hours. […] Compounds that facilitate disruption of a K-Ras:RAF complex were identified as those eliciting a decrease in the TR-FRET ratio relative to DMSO control wells.

Setting [13] is: read-out: H358 Cell Viability IC50, NCI-H358, K-Ras G12C, 5-day treatment.
The mark [14] stands for this setting: ASPC1, read-out: pERK EC50 (AsPC-1 KRAS G12D).
[15] abbreviates: read-out: AsPC-1 Cell Viability IC50, AsPC-1, K-Ras G12D, 5-day treatment.
The mark [16] stands for this setting: NRAS G12C FRET data IC50, NRAS G12C.

Like-named read-outs stand apart in the source and are kept apart here.

Chain of KRAS G12S (P01116 1-169 isoform P01116-2 G12S limits assumed): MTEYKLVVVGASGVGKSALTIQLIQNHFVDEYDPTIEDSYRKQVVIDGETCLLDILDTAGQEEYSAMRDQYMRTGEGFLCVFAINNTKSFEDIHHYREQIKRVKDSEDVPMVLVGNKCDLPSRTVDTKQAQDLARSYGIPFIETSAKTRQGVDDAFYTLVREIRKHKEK
Chain of KRAS G12S (P62937 whole entry): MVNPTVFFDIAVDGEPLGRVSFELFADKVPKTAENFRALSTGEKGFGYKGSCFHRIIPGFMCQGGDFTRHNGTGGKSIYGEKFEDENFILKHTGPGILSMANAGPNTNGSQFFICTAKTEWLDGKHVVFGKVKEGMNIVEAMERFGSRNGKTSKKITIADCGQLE
Chain of KRAS G12C (P01116 1-169 isoform P01116-2 G12C limits assumed): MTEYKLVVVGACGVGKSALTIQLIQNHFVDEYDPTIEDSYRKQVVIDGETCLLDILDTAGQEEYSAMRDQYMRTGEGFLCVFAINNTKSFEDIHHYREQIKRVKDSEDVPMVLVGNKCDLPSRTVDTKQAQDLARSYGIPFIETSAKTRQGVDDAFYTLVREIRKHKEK
Chain of KRAS G12C (P62937 whole entry): as the sequence (P62937 whole entry) above
Chain of KRAS G12D (P01116 1-169 isoform P01116-2 G12D limits assumed): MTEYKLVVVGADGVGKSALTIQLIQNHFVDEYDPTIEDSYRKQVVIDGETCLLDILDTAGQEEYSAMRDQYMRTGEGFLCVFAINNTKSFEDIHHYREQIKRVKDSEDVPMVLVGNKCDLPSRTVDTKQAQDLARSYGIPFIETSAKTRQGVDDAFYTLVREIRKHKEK
Chain of KRAS G12D (P62937 whole entry): as the sequence (P62937 whole entry) above
T1 sequence (P01111 whole entry G12C): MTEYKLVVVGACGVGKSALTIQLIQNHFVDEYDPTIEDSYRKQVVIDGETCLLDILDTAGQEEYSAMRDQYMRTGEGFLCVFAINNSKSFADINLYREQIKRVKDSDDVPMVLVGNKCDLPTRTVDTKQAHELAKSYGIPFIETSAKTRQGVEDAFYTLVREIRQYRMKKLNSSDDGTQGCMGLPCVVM
T1 sequence (P62937 whole entry): as the sequence (P62937 whole entry) above
Chain of KRAS G13D (P01116 1-169 isoform P01116-2 G13D limits assumed): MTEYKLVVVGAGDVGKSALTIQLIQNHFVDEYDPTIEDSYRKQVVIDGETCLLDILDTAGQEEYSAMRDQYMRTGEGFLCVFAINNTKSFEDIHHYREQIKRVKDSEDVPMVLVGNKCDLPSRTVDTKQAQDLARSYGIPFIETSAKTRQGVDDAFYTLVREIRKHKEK
Chain of KRAS G13D (P62937 whole entry): as the sequence (P62937 whole entry) above
Chain of KRAS WT (P01116 1-169 isoform P01116-2 limits assumed): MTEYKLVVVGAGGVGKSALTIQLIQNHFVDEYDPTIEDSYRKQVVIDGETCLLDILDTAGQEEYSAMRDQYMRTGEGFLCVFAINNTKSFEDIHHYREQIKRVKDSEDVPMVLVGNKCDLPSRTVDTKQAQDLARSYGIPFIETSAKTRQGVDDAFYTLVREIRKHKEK
Chain of KRAS WT (P62937 whole entry): as the sequence (P62937 whole entry) above
Chain of KRAS G13C (P01116 1-169 isoform P01116-2 G13C limits assumed): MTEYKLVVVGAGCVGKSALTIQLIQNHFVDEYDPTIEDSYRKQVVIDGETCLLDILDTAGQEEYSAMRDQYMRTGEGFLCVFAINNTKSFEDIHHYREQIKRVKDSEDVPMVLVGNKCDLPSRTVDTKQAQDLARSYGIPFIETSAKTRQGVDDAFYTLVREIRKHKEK
Chain of KRAS G13C (P62937 whole entry): as the sequence (P62937 whole entry) above
Chain of KRAS G12V (P01116 1-169 isoform P01116-2 G12V limits assumed): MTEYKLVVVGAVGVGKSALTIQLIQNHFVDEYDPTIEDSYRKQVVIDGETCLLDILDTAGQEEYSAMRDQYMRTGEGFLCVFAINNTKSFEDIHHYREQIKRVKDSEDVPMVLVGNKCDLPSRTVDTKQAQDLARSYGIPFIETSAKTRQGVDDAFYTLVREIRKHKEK
Chain of KRAS G12V (P62937 whole entry): as the sequence (P62937 whole entry) above
T2 sequence (P01111 whole entry): as the sequence (P01111 whole entry G12C) above, with C12G counted along it
T2 sequence (P62937 whole entry): as the sequence (P62937 whole entry) above

The term IC50 denotes the midpoint of a concentration-inhibition curve. The term EC50 denotes the midpoint of the concentration-response curve. Turning to `CCn1c(-c2cccnc2[C@H](C)OC)c2c3cc(ccc31)-c1cc(O)cc(c1)C[C@H](NC(=O)[C@H](C(C)C)N(C)C(=O)CN(C)C(=O)[C@@H]1CN1)C(=O)N1CCC[C@H](N1)C(=O)OCC(C)(C)C2` [Compound 150], the 50% inhibitory concentration (IC50) was under 10 nM in test [1] (setting [13]); 10 to 100 nM in test [3]; 10 to 100 nM in [4]; 10 to 100 nM in test [5]; 100 to 1000 nM in test [6] (setting [15]); under 10 nM in [7]. Besides, the IC50 in test [8] is 10 to 100 nM; in test [9], 10 to 100 nM; in test [10] (setting [16]), under 10 nM; in [11], 10 to 100 nM. Further, the EC50 in test [2] (setting [14]) was under 5000 nM.
For `CCn1c(-c2cccnc2[C@H](C)OC)c2c3cc(ccc31)-c1cc(O)cc(c1)C[C@H](NC(=O)[C@H](C(C)C)N1CC[C@@]3(CCCN(C(=O)[C@@H]4CN4)C3)C1=O)C(=O)N1CCC[C@H](N1)C(=O)OCC(C)(C)C2` [Compound 191], the IC50 in [1] (NCI-H358, K-Ras G12C, 5-day treatment, read-out: H358 Cell Viability IC50) lay in the range of 10 to 100 nM; in test [3] (disruption of BRAF RBD binding, with Cyclophilin A, read-out: KRAS G12V FRET IC50) it was 100 to 1000 nM; in test [4] (disruption of BRAF RBD binding, with Cyclophilin A, read-out: KRAS G12S FRET IC50), 10 to 100 nM; in [5] (disruption of BRAF RBD binding, with Cyclophilin A, read-out: KRAS WT FRET IC50), 10 to 100 nM; in [6] (AsPC-1, K-Ras G12D, 5-day treatment, read-out: AsPC-1 Cell Viability IC50) it was 1000 to 10000 nM; in test [7] (disruption of BRAF RBD binding, with Cyclophilin A, read-out: KRAS G12C FRET IC50) it was 10 to 100 nM. Further, the IC50 in test [8] (disruption of BRAF RBD binding, with Cyclophilin A, read-out: KRAS G13D FRET IC50) is 100 to 1000 nM; in test [9] (disruption of BRAF RBD binding, with Cyclophilin A, read-out: KRAS G12D FRET IC50), 100 to 1000 nM; in test [10] (NRAS G12C, read-out: NRAS G12C FRET data IC50), 10 to 100 nM; in [11] (disruption of BRAF RBD binding, with Cyclophilin A, read-out: KRAS G13C FRET IC50), 10 to 100 nM. Further, the EC50 in test [2] (ASPC1, AsPC-1 cells, K-Ras G12D, read-out: pERK EC50 (AsPC-1 KRAS G12D)) was under 5000 nM.
Turning to `CCn1c(-c2cccnc2[C@H](C)OC)c2c3cc(ccc31)-c1cc(O)cc(c1)C[C@H](NC(=O)[C@H](C(C)C)N(C)C(=O)CN(C)C(=O)[C@@H]1CN1CCCOC(C)=O)C(=O)N1CCC[C@H](N1)C(=O)OCC(C)(C)C2` (stereo partly shown) [Compound 267], the IC50 in test [1] (setting [13]) was under 10 nM; in test [6] (setting [15]) it was 100 to 1000 nM; in test [12], 10 to 100 nM. For the same molecule, the EC50 in test [2] (setting [14]) was under 5000 nM.
With `CCn1c(-c2cnccc2COC)c2c3cc(ccc31)-c1cc(O)cc(c1)C[C@H](NC(=O)[C@H](C(C)C)N(C)C(=O)CN(C)C(=O)[C@H]1CN1)C(=O)N1CCC[C@H](N1)C(=O)OCC(C)(C)C2` [Example 7, (2R)—N-(2-(((2S)-1-(((6^3S,4S)-1^1-ethyl-2^5-hydroxy-1^2-(4-(methoxymethyl)pyridin-3-yl)-10,10-dimethyl-5,7-dioxo-6^1,6^2,6^3,6^4,6^5,6^6-hexahydro-1^1H-8-oxa-1(5,3)-indola-6(1,3)-pyridazina-2(1,3)-benzenacycloundecaphane-4-yl)amino)-3-methyl-1-oxobutan-2-yl)(methyl)amino)-2-oxoethyl)-N-methylaziridine-2-carboxamide], the IC50 in test [1] (setting [13]) is 10 to 100 nM; in [3], 100 to 1000 nM; in test [4] it was 10 to 100 nM; in test [5], 100 to 1000 nM; in test [6] (setting [15]), 100 to 1000 nM; in [7], under 10 nM. For the same molecule, the IC50 was 100 to 1000 nM in test [8], 100 to 1000 nM in test [9], under 10 nM in [10] (setting [16]) and 10 to 100 nM in test [11]. Further, the EC50 in test [2] (setting [14]) was under 5000 nM.

For the origin of these results see patent US11739074B2, “Ras inhibitors” (Revolution Medicines, Inc., priority 2019, dated 2023).
